Reference: US9809587B2, “Pesticidally active heterocyclic derivatives with sulphur containing substituents” (Syngenta Participations AG, priority 2014, dated 2017)

How the values were obtained:
Format in all cases: in vivo
[1] = tested on: Bemisia tabaci (Cotton White Fly); experiment: Bemisia tabaci (cotton white fly), sprayed cotton leaf discs; settings: foliar, 144 h, application rate of 200 ppm, adult white flies on cotton leaf discs, 6 days after incubation
Method: Example B1: Bemisia tabaci (Cotton White Fly)
Cotton leaf discs were placed on agar in 24-well microtiter plates and sprayed with aqueous test solutions prepared from 10′000 ppm DMSO stock solutions. After drying the leaf discs were infested with adult white flies. The samples were checked for mortality 6 days after incubation.

[2] = tested on: Euschistus heros (Neotropical Brown Stink Bug); experiment: Euschistus heros (neotropical brown stink bug), sprayed soybean leaf; settings: 120 h, application rate of 200 ppm, N-2 nymphs on soybean leaf, 5 days after infestation
Method: Example B3: Euschistus heros (Neotropical Brown Stink Bug)
Soybean leaf on agar in 24-well microtiter plates were sprayed with aqueous test solutions prepared from 10′000 ppm DMSO stock solutions. After drying the leaf were infested with N-2 nymphs. The samples were assessed for mortality in comparison to untreated samples 5 days after infestation.

[3] = tested on: Myzus persicae (Green Peach Aphid); experiment: Myzus persicae (green peach aphid), sprayed sunflower leaf discs; settings: foliar, 144 h, application rate of 200 ppm, mixed ages on sunflower leaf discs, 6 days after infestation
Method: Example B4: Myzus persicae (Green Peach Aphid)
(§1) Sunflower leaf discs were placed on agar in a 24-well microtiter plate and sprayed with aqueous test solutions prepared from 10′000 ppm DMSO stock solutions. After drying, the leaf discs were infested with an aphid population of mixed ages. The samples were assessed for mortality 6 days after infestation.

[4] = tested on: Myzus persicae (Green Peach Aphid); experiment: Myzus persicae (green peach aphid), roots of pea seedlings in test solution; settings: 144 h, test rate of 24 ppm, roots of infested pea seedlings in test solution, 6 days
Method: Example B5: Myzus persicae (Green Peach Aphid)
Roots of pea seedlings infested with an aphid population of mixed ages were placed directly in the aqueous test solutions prepared from 10′000 DMSO stock solutions. The samples were assessed for mortality 6 days after placing seedlings in test solutions.

[5] = tested on: Plutella xylostella (Diamond Back Moth); experiment: Plutella xylostella (diamond back moth), treated artificial diet; settings: 120 h, application rate of 200 ppm, L2 larvae on artificial diet, 5 days after infestation, read-out: effect in at least one of the two categories (mortality or growth inhibition)
Method in brief: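 Artificial diet treated with aqueous dilutions of DMSO stocks (10′000 ppm stock), dried, then infested with 10-15 L2 larvae per well. Mortality and growth inhibition assessed versus untreated controls 5 days after infestation.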

[6] = tested on: Spodoptera littoralis (Egyqptian Cotton Leaf Worm); experiment: Spodoptera littoralis (Egyptian cotton leaf worm), sprayed cotton leaf discs; settings: foliar, 72 h, application rate of 200 ppm, L1 larvae on cotton leaf discs, 3 days after infestation
Method in brief: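 Cotton leaf discs on agar were sprayed with aqueous dilutions made from 10′000 ppm DMSO stocks, then infested after drying with five L1 larvae. Mortality, anti-feedant effect and growth inhibition were scored against untreated discs 3 days after infestation. Control means at least one of these exceeds the untreated sample.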

[7] = tested on: Thrips tabaci (Onion Thrips); experiment: Thrips tabaci (onion thrips), sprayed sunflower leaf discs; settings: foliar, 144 h, application rate of 200 ppm, mixed ages on sunflower leaf discs, 6 days after infestation
Method: Example B10: Thrips tabaci (Onion Thrips)
as §1, with “in” for “in a”, “plates” for “plate”, “drying” for “drying,”, “a thrips” for “an aphid”

[8] = tested on: Frankliniella occidentalis (Western Flower Thrips); experiment: Frankliniella occidentalis (western flower thrips), sprayed sunflower leaf discs; settings: foliar, 168 h, application rate of 200 ppm, mixed ages on sunflower leaf discs, 7 days after infestation
Method: Example B11: Frankliniella occidentalis (Western Flower Thrips)
as §1, with “in” for “in a”, “plates” for “plate”, “[…]” for “10′000 ppm”, “drying” for “drying,”, “a Frankliniella” for “an aphid”, “7” for “6”

[9] = tested on: Diabrotica balteata (Corn Root Worm); experiment: Diabrotica balteata (corn root worm), sprayed maize sprouts; settings: 96 h, application rate of 200 ppm, L2 larvae on maize sprouts, 4 days after infestation
Method: Example B2: Diabrotica balteata (Corn Root Worm)
Maize sprouts, placed on an agar layer in 24-well microtiter plates were treated with aqueous test solutions prepared from 10′000 ppm DMSO stock solutions by spraying. After drying, the plates were infested with L2 larvae (6 to 10 per well). The samples were assessed for mortality and growth inhibition in comparison to untreated samples 4 days after infestation.

[10] = tested on: Spodoptera littoralis (Egyqptian Cotton Leaf Worm); experiment: Spodoptera littoralis (Egyptian cotton leaf worm), compound in agar taken up by lettuce roots; settings: 144 h, test rate of 12.5 ppm, uptake by lettuce roots from agar, 6 days after infestation, read-out: effect in at least one of the three categories (mortality, anti-feedancy, or growth inhibition)
Method in brief: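 Compound mixed into agar from a 10′000 ppm DMSO stock and taken up over 7 days by lettuce roots; cut leaves then infested with Spodoptera eggs. Mortality, anti-feedant effect and growth inhibition scored against untreated samples 6 days after infestation.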

[11] = tested on: Aedes aegypti (Yellow Fever Mosquito); experiment: Activity against Aedes aegypti (yellow fever mosquito), dried deposits in tissue culture plates; settings: application rate of 200 ppm in ethanol, adult females, after 48 h
Method: Example B12: Activity Against Aedes aegypti (Yellow Fever Mosquito)
Test solutions, at an application rate of 200 ppm in ethanol, were applied to 12-well tissue culture plates. Once the deposits were dry, five, two to five days old adult female Aedes aegypti were added to each well, and sustained with a 10% sucrose solution in a cotton wool plug. Assessment of knockdown was made one hour after introduction, and mortality was assessed at 24 and 48 hours after introduction.
The following compounds gave at least 80% control of Aedes aegypti after 48 h: […]

CCS(=O)(=O)c1cc(-c2cncnc2)cnc1-c1nc2cc(C(F)(F)F)ncc2n1C [Compound P8]
≥ 80%: mortality at 200 ppm [1] | mortality at 200 ppm [2] | mortality at 200 ppm [3] | mortality at 24 ppm [4] | percent effect (mortality or growth inhibition) at 200 ppm [5] | percent control (mortality, anti-feedant effect or growth inhibition) at 200 ppm [6] | mortality at 200 ppm [7] | mortality at 200 ppm [8]

CCS(=O)(=O)c1cc(-c2ncc(Cl)cn2)cnc1-c1nc2cc(C(F)(F)F)ncc2n1C [Compound P11]
≥ 80%: mortality at 200 ppm [1] | mortality at 200 ppm [9] | mortality at 200 ppm [2] | mortality at 200 ppm [3] | percent effect (mortality or growth inhibition) at 200 ppm [5] | percent control (mortality, anti-feedant effect or growth inhibition) at 200 ppm [6] | percent control (mortality, anti-feedancy or growth inhibition) at 12.5 ppm [10] | mortality at 200 ppm [7] | mortality at 200 ppm [8] | pest or weed control at 200 ppm [11]

CCS(=O)(=O)c1cc(-n2cc(Cl)cn2)cnc1-c1nc2cc(C(F)(F)F)ncc2n1C [Compound P16, 2-[5-(4-chloropyrazol-1-yl)-3-ethylsulfonyl-2-pyridyl]-3-methyl-6-(trifluoromethyl)imidazo[4,5-c]pyridine]
≥ 80%: mortality at 200 ppm [1] | mortality at 200 ppm [9] | mortality at 200 ppm [2] | mortality at 200 ppm [3] | percent effect (mortality or growth inhibition) at 200 ppm [5] | percent control (mortality, anti-feedant effect or growth inhibition) at 200 ppm [6] | percent control (mortality, anti-feedancy or growth inhibition) at 12.5 ppm [10] | mortality at 200 ppm [7] | mortality at 200 ppm [8] | pest or weed control at 200 ppm [11]

CCS(=O)(=O)c1cc(-n2cc(Br)cn2)cnc1-c1nc2cc(C(F)(F)F)ncc2n1C [Compound P17]
≥ 80%: mortality at 200 ppm [1] | mortality at 200 ppm [9] | percent effect (mortality or growth inhibition) at 200 ppm [5] | percent control (mortality, anti-feedant effect or growth inhibition) at 200 ppm [6] | mortality at 200 ppm [7] | mortality at 200 ppm [8] | pest or weed control at 200 ppm [11]

CCS(=O)(=O)c1cc(-c2ccccn2)cnc1-c1nc2cc(C(F)(F)F)ncc2n1C [Compound P18]
≥ 80%: mortality at 200 ppm [2] | mortality at 200 ppm [3] | mortality at 24 ppm [4] | percent effect (mortality or growth inhibition) at 200 ppm [5] | percent control (mortality, anti-feedant effect or growth inhibition) at 200 ppm [6] | percent control (mortality, anti-feedancy or growth inhibition) at 12.5 ppm [10] | mortality at 200 ppm [8] | pest or weed control at 200 ppm [11]

CCS(=O)(=O)c1cc(-c2ccc(C(F)(F)F)cn2)cnc1-c1nc2cc(C(F)(F)F)ncc2n1C [Compound P19]
≥ 80%: mortality at 200 ppm [1] | mortality at 200 ppm [9] | mortality at 200 ppm [2] | mortality at 200 ppm [3] | percent effect (mortality or growth inhibition) at 200 ppm [5] | percent control (mortality, anti-feedant effect or growth inhibition) at 200 ppm [6] | percent control (mortality, anti-feedancy or growth inhibition) at 12.5 ppm [10] | mortality at 200 ppm [8] | pest or weed control at 200 ppm [11]

CCS(=O)(=O)c1cc(-c2ccc(Cl)cn2)cnc1-c1nc2cc(C(F)(F)F)ncc2n1C [Compound P20]
≥ 80%: mortality at 200 ppm [1] | mortality at 200 ppm [9] | mortality at 200 ppm [2] | mortality at 200 ppm [3] | percent effect (mortality or growth inhibition) at 200 ppm [5] | percent control (mortality, anti-feedant effect or growth inhibition) at 200 ppm [6] | percent control (mortality, anti-feedancy or growth inhibition) at 12.5 ppm [10] | mortality at 200 ppm [7] | mortality at 200 ppm [8] | pest or weed control at 200 ppm [11]

CCS(=O)(=O)c1cc(-n2cc(C(F)(F)F)cn2)cnc1-c1nc2cc(C(F)(F)F)ncc2n1C [Compound P85]
≥ 80%: mortality at 200 ppm [1] | mortality at 200 ppm [9] | mortality at 200 ppm [2] | mortality at 200 ppm [3] | percent effect (mortality or growth inhibition) at 200 ppm [5] | percent control (mortality, anti-feedant effect or growth inhibition) at 200 ppm [6] | percent control (mortality, anti-feedancy or growth inhibition) at 12.5 ppm [10] | mortality at 200 ppm [7] | mortality at 200 ppm [8] | pest or weed control at 200 ppm [11]

CCS(=O)(=O)c1cc(-c2ccc(C#N)cn2)cnc1-c1nc2cc(C(F)(F)F)ncc2n1C [Compound P91]
≥ 80%: mortality at 200 ppm [1] | mortality at 200 ppm [9] | mortality at 200 ppm [2] | mortality at 200 ppm [3] | percent effect (mortality or growth inhibition) at 200 ppm [5] | percent control (mortality, anti-feedant effect or growth inhibition) at 200 ppm [6] | percent control (mortality, anti-feedancy or growth inhibition) at 12.5 ppm [10] | mortality at 200 ppm [7] | mortality at 200 ppm [8]

CCS(=O)(=O)c1cc(-c2cc(Cl)ccn2)cnc1-c1nc2cc(C(F)(F)F)ncc2n1C [Compound P92]
≥ 80%: mortality at 200 ppm [9] | mortality at 200 ppm [2] | mortality at 200 ppm [3] | percent effect (mortality or growth inhibition) at 200 ppm [5] | percent control (mortality, anti-feedant effect or growth inhibition) at 200 ppm [6] | percent control (mortality, anti-feedancy or growth inhibition) at 12.5 ppm [10] | mortality at 200 ppm [8] | pest or weed control at 200 ppm [11]

CCS(=O)(=O)c1cc(-c2cc(C#N)ccn2)cnc1-c1nc2cc(C(F)(F)F)ncc2n1C [Compound P93]
≥ 80%: mortality at 200 ppm [9] | mortality at 200 ppm [2] | mortality at 200 ppm [3] | percent effect (mortality or growth inhibition) at 200 ppm [5] | percent control (mortality, anti-feedant effect or growth inhibition) at 200 ppm [6] | percent control (mortality, anti-feedancy or growth inhibition) at 12.5 ppm [10] | mortality at 200 ppm [8] | pest or weed control at 200 ppm [11]

CCS(=O)(=O)c1cc(-n2cc(C#N)cn2)cnc1-c1nc2cc(C(F)(F)F)ncc2n1C [Compound P94]
≥ 80%: mortality at 200 ppm [1] | mortality at 200 ppm [9] | mortality at 200 ppm [2] | mortality at 200 ppm [3] | mortality at 24 ppm [4] | percent effect (mortality or growth inhibition) at 200 ppm [5] | percent control (mortality, anti-feedant effect or growth inhibition) at 200 ppm [6] | mortality at 200 ppm [7] | mortality at 200 ppm [8] | pest or weed control at 200 ppm [11]

CCS(=O)(=O)c1cc(-c2nccc(C(F)(F)F)n2)cnc1-c1nc2cc(C(F)(F)F)ncc2n1C [Compound P100]
≥ 80%: mortality at 200 ppm [1] | mortality at 200 ppm [9] | mortality at 200 ppm [2] | mortality at 200 ppm [3] | percent effect (mortality or growth inhibition) at 200 ppm [5] | percent control (mortality, anti-feedant effect or growth inhibition) at 200 ppm [6] | percent control (mortality, anti-feedancy or growth inhibition) at 12.5 ppm [10] | mortality at 200 ppm [7] | mortality at 200 ppm [8] | pest or weed control at 200 ppm [11]

CCS(=O)(=O)c1cc(-n2cnc(Cl)n2)cnc1-c1nc2cc(C(F)(F)F)ncc2n1C [Compound P106]
≥ 80%: mortality at 200 ppm [1] | mortality at 200 ppm [9] | mortality at 200 ppm [2] | mortality at 200 ppm [3] | mortality at 24 ppm [4] | percent effect (mortality or growth inhibition) at 200 ppm [5] | percent control (mortality, anti-feedant effect or growth inhibition) at 200 ppm [6] | mortality at 200 ppm [7] | mortality at 200 ppm [8]
